Columns and labels:
[1] = Toxicity of peptide treatment in human patients; format: in vivo
Source text: Toxicity. As to toxicity, the complete schedule of peptide therapeutic agents above gave negative evidence of toxicity.

[2] = Six-week intravenous toxicity study in hamsters; format: in vivo
Source text: [D-ala^1 ]peptide-T-amide was given twice daily intravenously to hamsters for six weeks. […] Liver enzymes and kidney enzymes were normal after injection.

[3] = after injection twice daily intravenously for six weeks

| Structure (SMILES) | toxicity in the liver or kidney ([1]; In humans) | toxicity ([1]; preliminary findings, blood pressure fell when the infusion rate was increased) | Liver enzymes [2, 3] | kidney enzymes [2, 3] | histologic studies on all organs ([2]; twice daily intravenously for six weeks) |
| --- | --- | --- | --- | --- | --- |
| C[C@H](N)C(=O)N[C@@H](CO)C(=O)N[C@H](C(=O)N[C@H](C(=O)N[C@H](C(=O)N[C@@H](CC(N)=O)C(=O)N[C@@H](Cc1ccc(O)cc1)C(=O)N[C@H](C(=O)O)[C@@H](C)O)[C@@H](C)O)[C@@H](C)O)[C@@H](C)O [Peptide T] | no toxicity apparent | non-toxic with the exception of lowering the blood pressure on one occasion | – | – | – |
| C[C@@H](N)C(=O)N[C@@H](CO)C(=O)N[C@H](C(=O)N[C@H](C(=O)N[C@H](C(=O)N[C@@H](CC(N)=O)C(=O)N[C@@H](Cc1ccc(O)cc1)C(=O)N[C@H](C(N)=O)[C@@H](C)O)[C@@H](C)O)[C@@H](C)O)[C@@H](C)O [[D-ala^1]peptide-T-amide] | – | – | normal | normal | no significant difference |
